Read-outs that look alike come from different tables or passages of the source.
Key:
[1] = biological target: human CB1 receptor (hCB1) (Homo sapiens, UniProt P21554); assay: cell-based; type: cell-based; details: for +/− HCB1: agonist or inverse agonist at hCB1
Summary of the method: (§1)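 Readout: LANCE TR-FRET cAMP, back-calculated from a concurrent standard curve and scaled between forskolin-only and forskolin + 1 μM CP55,940 wells. EC50 and intrinsic activity came from four-parameter fits.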

rat CB2 receptor (rCB2) = biological target: T1, rat CB2 receptor (rCB2) (Rattus norvegicus, UniProt Q9QZN9); assay: cell-based; type: cell-based; details: for +/− RCB2: agonist or inverse agonist at rCB2
T1 sequence (Q9QZN9 1-360): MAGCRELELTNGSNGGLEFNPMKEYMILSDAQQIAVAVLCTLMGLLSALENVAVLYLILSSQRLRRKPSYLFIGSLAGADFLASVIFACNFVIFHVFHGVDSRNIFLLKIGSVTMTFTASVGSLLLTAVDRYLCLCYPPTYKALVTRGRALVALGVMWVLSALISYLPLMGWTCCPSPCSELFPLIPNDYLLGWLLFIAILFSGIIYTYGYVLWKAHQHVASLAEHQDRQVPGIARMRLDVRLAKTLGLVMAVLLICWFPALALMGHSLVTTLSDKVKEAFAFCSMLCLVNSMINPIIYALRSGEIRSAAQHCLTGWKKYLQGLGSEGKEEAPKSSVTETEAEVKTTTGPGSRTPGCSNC
Summary of the method: as §1

[2] = groups >100 nM-10 μM and >10 μM, cAMP, CHO-K1 hCB1, read-out: EC50 HCB1
[3] = groups >100 nM-10 μM and >10 μM, cAMP, CHO-K1 rCB2, read-out: EC50 RCB2

Chain of human CB1 receptor (hCB1) (P21554 whole entry): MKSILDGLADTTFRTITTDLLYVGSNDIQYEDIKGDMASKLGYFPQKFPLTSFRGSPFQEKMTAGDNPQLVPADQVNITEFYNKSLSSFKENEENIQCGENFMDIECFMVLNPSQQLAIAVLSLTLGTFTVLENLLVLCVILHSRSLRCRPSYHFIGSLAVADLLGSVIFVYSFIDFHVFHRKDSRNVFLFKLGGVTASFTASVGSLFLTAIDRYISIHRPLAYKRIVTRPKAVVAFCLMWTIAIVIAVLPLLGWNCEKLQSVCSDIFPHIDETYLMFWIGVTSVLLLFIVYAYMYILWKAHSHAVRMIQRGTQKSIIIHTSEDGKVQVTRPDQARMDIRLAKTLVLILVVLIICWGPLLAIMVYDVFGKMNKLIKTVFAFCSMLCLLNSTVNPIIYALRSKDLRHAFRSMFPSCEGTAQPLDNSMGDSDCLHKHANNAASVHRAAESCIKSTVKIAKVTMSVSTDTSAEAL

With `CNC(=O)[C@H](CC(C)(C)C)NC(=O)c1nc(-c2ccc(Cl)cc2F)n2c1CN(C)CCC2` [Compound 544, (S)-3-(4-chloro-2-fluorophenyl)-N-(4,4-dimethyl-1-(methylamino)-1-oxopentan-2-yl)-8-methyl-6,7,8,9-tetrahydro-5H-imidazo[1,5-a][1,4]diazepine-1-carboxamide] the “+/− HCB1” value [1] was “+” and the “+/− RCB2” value (rat CB2 receptor (rCB2)) was “+”.
With `CCS(=O)(=O)N1CCn2c(-c3ccccc3)nc(C(=O)N[C@@H](C)c3ccccc3)c2C1` [Compound 113, (S)-7-(ethylsulfonyl)-3-phenyl-N-(1-phenylethyl)-5,6,7,8-tetrahydroimidazo[1,5-a]pyrazine-1-carboxamide] the EC50 [1] was over 10000 nM and the “+/− RCB2” value (rat CB2 receptor (rCB2)) was “−”.
In the case of `CNC(=O)[C@@H](NC(=O)c1nc(-c2cnc(OC)nc2OC)n2c1CN(C)CCC2)C(C)(C)C` [Compound 344, (S)-3-(2,4-dimethoxypyrimidin-5-yl)-N-(3,3-dimethyl-1-(methylamino)-1-oxobutan-2-yl)-8-methyl-6,7,8,9-tetrahydro-5H-imidazo[1,5-a][1,4]diazepine-1-carboxamide], the EC50 [1] is reported as over 10000 nM and the EC50 (rat CB2 receptor (rCB2)) is reported as over 10000 nM.
With `CNC(=O)[C@@H](NC(=O)c1nc(-c2cc(F)cc(F)c2)n2c1CN(C)CC2)C(C)(C)C` [Compound 262, (S)-3-(3,5-difluorophenyl)-N-(3,3-dimethyl-1-(methylamino)-1-oxobutan-2-yl)-7-methyl-5,6,7,8-tetrahydroimidazo[1,5-a]pyrazine-1-carboxamide] the EC50 [1] was over 10000 nM and the “+/− RCB2” value (rat CB2 receptor (rCB2)) was “+”.
`CNC(=O)[C@@H](NC(=O)c1nc(-c2ccc(C#N)cc2)n2c1CN(C)CC2)C(C)(C)C` [Compound 254, (S)-3-(4-cyanophenyl)-N-(3,3-dimethyl-1-(methylamino)-1-oxobutan-2-yl)-7-methyl-5,6,7,8-tetrahydroimidazo[1,5-a]pyrazine-1-carboxamide] was tested, and the EC50 [1] was over 10000 nM and the “+/− RCB2” value (rat CB2 receptor (rCB2)) was “−”.
`O=C(c1nc(-c2ccccc2)n2c1CNCC2)N1CCOCC1` [Compound 25, morpholino(3-phenyl-5,6,7,8-tetrahydroimidazo[1,5-a]pyrazin-1-yl)methanone] showed an EC50 [1, 2] of over 10000 nM and an EC50 (rat CB2 receptor (rCB2); [3]) of over 10000 nM.
With `CNC(=O)[C@@H](NC(=O)c1nc(-c2cc(F)c(F)cc2F)n2c1CN(C)CCC2)C1CCCCC1` [Compound 541, (S)-N-(1-cyclohexyl-2-(methylamino)-2-oxoethyl)-8-methyl-3-(2,4,5-trifluorophenyl)-6,7,8,9-tetrahydro-5H-imidazo[1,5-a][1,4]diazepine-1-carboxamide] the “+/− HCB1” value [1] was “+” and the “+/− RCB2” value (rat CB2 receptor (rCB2)) was “+”.
Molecule `CNC(=O)[C@@H](NC(=O)c1nc(-c2ccc(C)cc2Cl)n2c1CN(C)CCC2)C(C)(C)C` [Compound 367, (S)-3-(2-chloro-4-methylphenyl)-N-(3,3-dimethyl-1-(methylamino)-1-oxobutan-2-yl)-8-methyl-6,7,8,9-tetrahydro-5H-imidazo[1,5-a][1,4]diazepine-1-carboxamide] has an EC50 [1] of over 10000 nM and an EC50 (rat CB2 receptor (rCB2)) of over 10000 nM.
`COC(=O)N1CCn2c(-c3ccccc3)nc(C(=O)NN3CCCCC3)c2C1` [Compound 182, methyl 3-phenyl-1-(piperidin-1-ylcarbamoyl)-5,6-dihydroimidazo[1,5-a]pyrazine-7(8H)-carboxylate] was tested, and the EC50 [1, 2] was over 10000 nM and the “+/− RCB2” value (rat CB2 receptor (rCB2)) was “−”.
With `CNC(=O)[C@@H](NC(=O)c1nc(-c2ccsc2)n2c1CNCC2)C(C)(C)C` [Compound 11, (S)-N-(3,3-dimethyl-1-(methylamino)-1-oxobutan-2-yl)-3-(thiophen-3-yl)-5,6,7,8-tetrahydroimidazo[1,5-a]pyrazine-1-carboxamide] the EC50 [1] was over 10000 nM and the “+/− RCB2” value (rat CB2 receptor (rCB2)) was “+”.
`CNC(=O)[C@@H](NC(=O)c1nc(/C=C/C2CCCCC2)n2c1CN(C)CCC2)C(C)(C)C` [Compound 439] was tested, and the EC50 [1] was over 10000 nM and the “+/− RCB2” value (rat CB2 receptor (rCB2)) was “+”.
`CNC(=O)[C@@H](NC(=O)c1nc(/C=C/Cc2ccccc2)n2c1CN(C)CCC2)C(C)(C)C` [Compound 458, (S,E)-N-(3,3-dimethyl-1-(methylamino)-1-oxobutan-2-yl)-8-methyl-3-(3-phenylprop-1-enyl)-6,7,8,9-tetrahydro-5H-imidazo[1,5-a][1,4]diazepine-1-carboxamide] was tested, and the “+/− HCB1” value [1] was “+” and the “+/− RCB2” value (rat CB2 receptor (rCB2)) was “−”.
`CNC(=O)[C@@H](NC(=O)c1nc(-c2ccc(F)c(C(=O)N3CCOCC3)c2)n2c1CN(C)CCC2)C(C)(C)C` [Compound 389, (S)-N-(3,3-dimethyl-1-(methylamino)-1-oxobutan-2-yl)-3-(4-fluoro-3-(morpholine-4-carbonyl)phenyl)-8-methyl-6,7,8,9-tetrahydro-5H-imidazo[1,5-a][1,4]diazepine-1-carboxamide] showed an EC50 [1] of over 10000 nM and an EC50 (rat CB2 receptor (rCB2)) of over 10000 nM.
`CNC(=O)[C@@H](NC(=O)c1nc(-c2ccc(OC)cc2C)n2c1CN(C)CCC2)C(C)(C)C` [Compound 343, (S)-N-(3,3-dimethyl-1-(methylamino)-1-oxobutan-2-yl)-3-(4-methoxy-2-methylphenyl)-8-methyl-6,7,8,9-tetrahydro-5H-imidazo[1,5-a][1,4]diazepine-1-carboxamide] gave an EC50 [1] of over 10000 nM and an EC50 (rat CB2 receptor (rCB2)) of over 10000 nM.
Work on `CN1CCn2c(-c3ccc(Cl)cc3F)nc(C(=O)N3CCN(c4ncccn4)CC3)c2C1` [Compound 211, (3-(4-chloro-2-fluorophenyl)-7-methyl-5,6,7,8-tetrahydroimidazo[1,5-a]pyrazin-1-yl)(4-(pyrimidin-2-yl)piperazin-1-yl)methanone] yielded an EC50 [1, 2] of over 10000 nM and an EC50 (rat CB2 receptor (rCB2); [3]) of over 10000 nM.
Molecule `CNC(=O)[C@@H](NC(=O)c1nc(-c2ccccc2)n2c1CN(C(=O)c1ccccc1)CC2)C(C)(C)C` [Compound 127, (S)-7-benzoyl-N-(3,3-dimethyl-1-(methylamino)-1-oxobutan-2-yl)-3-phenyl-5,6,7,8-tetrahydroimidazo[1,5-a]pyrazine-1-carboxamide] has an EC50 [1] of over 10000 nM and an EC50 (rat CB2 receptor (rCB2)) of over 10000 nM.
`CNC(=O)[C@@H](NC(=O)c1nc(C2=CCN(C(=O)OC(C)(C)C)CC2)n2c1CN(C)CCC2)C(C)(C)C` [Compound 388, (S)-tert-butyl 4-(1-(3,3-dimethyl-1-(methylamino)-1-oxobutan-2-ylcarbamoyl)-8-methyl-6,7,8,9-tetrahydro-5H-imidazo[1,5-a][1,4]diazepin-3-yl)-5,6-dihydropyridine-1(2H)-carboxylate] gave an EC50 [1] of over 10000 nM and an EC50 (rat CB2 receptor (rCB2)) of over 10000 nM.
`CN1CCCn2c(-c3ccc(Cl)cc3F)nc(C(=O)N[C@@H](CC(C)(C)C)C(N)=O)c2C1` [Compound 584, (S)-N-(1-amino-4,4-dimethyl-1-oxopentan-2-yl)-3-(4-chloro-2-fluorophenyl)-8-methyl-6,7,8,9-tetrahydro-5H-imidazo[1,5-a][1,4]diazepine-1-carboxamide] was tested, and the “+/− HCB1” value [1] was “+” and the “+/− RCB2” value (rat CB2 receptor (rCB2)) was “+”.
In the case of `CN1CCCn2c(-c3cc(F)ccc3F)nc(C(=O)N[C@H](C(=O)N(C)C)C(C)(C)C)c2C1` [Compound 562, (S)-3-(2,5-difluorophenyl)-N-(1-(dimethylamino)-3,3-dimethyl-1-oxobutan-2-yl)-8-methyl-6,7,8,9-tetrahydro-5H-imidazo[1,5-a][1,4]diazepine-1-carboxamide], the EC50 [1] is reported as over 10000 nM and the “+/− RCB2” value (rat CB2 receptor (rCB2)) is reported as “−”.
`CNC(=O)[C@@H](NC(=O)c1nc(CCCC2CCCC2)n2c1CN(C)CCC2)C(C)(C)C` [Compound 494, (S)-3-(3-cyclopentylpropyl)-N-(3,3-dimethyl-1-(methylamino)-1-oxobutan-2-yl)-8-methyl-6,7,8,9-tetrahydro-5H-imidazo[1,5-a][1,4]diazepine-1-carboxamide] was tested, and the EC50 [1] was over 10000 nM and the “+/− RCB2” value (rat CB2 receptor (rCB2)) was “−”.
`CNC(=O)[C@@H](NC(=O)c1nc(-c2ccccc2)n2c1CN(C(=O)C1CC1)CC2)C(C)(C)C` [Compound 126, (S)-7-(cyclopropanecarbonyl)-N-(3,3-dimethyl-1-(methylamino)-1-oxobutan-2-yl)-3-phenyl-5,6,7,8-tetrahydroimidazo[1,5-a]pyrazine-1-carboxamide] was tested, and the EC50 [1] was over 10000 nM and the “+/− RCB2” value (rat CB2 receptor (rCB2)) was “−”.
`CCS(=O)(=O)N1CCn2c(-c3ccccc3)nc(C(=O)N[C@H](C)C3CCCCC3)c2C1` [Compound 111, (R)-N-(1-cyclohexylethyl)-7-(ethylsulfonyl)-3-phenyl-5,6,7,8-tetrahydroimidazo[1,5-a]pyrazine-1-carboxamide] gave an EC50 [1] of over 10000 nM and an EC50 (rat CB2 receptor (rCB2)) of over 10000 nM.
With `CNC(=O)[C@@H](NC(=O)c1nc(-c2csc3ccccc23)n2c1CN(C)CC2)C(C)(C)C` [Compound 75, (S)-3-(benzo[b]thiophen-3-yl)-N-(3,3-dimethyl-1-(methylamino)-1-oxobutan-2-yl)-7-methyl-5,6,7,8-tetrahydroimidazo[1,5-a]pyrazine-1-carboxamide] the EC50 [1] was over 10000 nM and the “+/− RCB2” value (rat CB2 receptor (rCB2)) was “+”.
For `CNC(=O)[C@@H](NC(=O)c1nc(C2=CCNCC2)n2c1CN(C)CC2)C(C)(C)C` [Compound 274, (S)-N-(3,3-dimethyl-1-(methylamino)-1-oxobutan-2-yl)-7-methyl-3-(1,2,3,6-tetrahydropyridin-4-yl)-5,6,7,8-tetrahydroimidazo[1,5-a]pyrazine-1-carboxamide], the “+/− HCB1” value [1] was “+” and the “+/− RCB2” value (rat CB2 receptor (rCB2)) was “−”.
For `CNC(=O)[C@@H](NC(=O)c1nc(-c2ccccc2Cl)n2c1CNCC2)C(C)(C)C` [Compound 10, (S)-3-(2-chlorophenyl)-N-(3,3-dimethyl-1-(methylamino)-1-oxobutan-2-yl)-5,6,7,8-tetrahydroimidazo[1,5-a]pyrazine-1-carboxamide], the EC50 [1] was over 10000 nM and the “+/− RCB2” value (rat CB2 receptor (rCB2)) was “+”.
